Where only a bound is given, the exact number is not on record here.

T1 sequence (P28845 whole entry): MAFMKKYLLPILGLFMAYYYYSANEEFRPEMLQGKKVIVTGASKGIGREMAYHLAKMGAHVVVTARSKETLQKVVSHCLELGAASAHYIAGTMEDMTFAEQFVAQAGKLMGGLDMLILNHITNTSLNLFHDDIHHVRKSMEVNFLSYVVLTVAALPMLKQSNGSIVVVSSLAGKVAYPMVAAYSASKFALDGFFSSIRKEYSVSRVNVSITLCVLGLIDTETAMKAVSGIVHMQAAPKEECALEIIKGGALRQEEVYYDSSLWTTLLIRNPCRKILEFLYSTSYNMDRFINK

This experiment concerns the target T1, recombinant human 11 β-HSD1 (Homo sapiens, UniProt P28845).
T1 construct: made in house; host or cells: E. coli
Put plainly: 11 β-HSD1 SPA Assay (Scintillation Proximity Assay). The class given is biochemical. The procedure, abridged: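 Scintillation proximity read-out of cortisol formed from 40 nM [3H]cortisone by purified recombinant human enzyme (30-100 nM, E. coli) with 1 mM NADPH, pH7.4, 2 hours at room temperature; beads with cortisol antibody and glycyrrhetinic acid stop the reaction, read next day. IC50 derived from inhibition normalised to background and maximal wells.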
(Scintillation proximity formats need no separation of bound from free tracer.)
For `CC(C)(Oc1cc(F)c(F)cc1F)C(=O)N[C@H]1C[C@H]2CC[C@@H](C1)N2c1ccc(S(C)(=O)=O)cc1` [Example 234, 2-methyl-N-{8-[4-(methylsulfonyl)phenyl]-8-azabicyclo[3.2.1]oct-3-endo-yl}-2-[(2,4,5-trifluorophenyl)oxy]propanamide], the IC50 is < 2000 nM.

Turning to `CC(C)(Oc1ccc(F)c(Cl)c1Cl)C(=O)N[C@H]1C[C@H]2CC[C@@H](C1)N2c1ccc(S(C)(=O)=O)cc1` [Example 235, 2-[(2,3-dichloro-4-fluorophenyl)oxy]-2-methyl-N-{8-[4-(methylsulfonyl)phenyl]-8-azabicyclo[3.2.1]oct-3-endo-yl}propanamide], the half-maximal inhibitory concentration (IC50) was < 200 nM.

For the compound `CC(C)(Oc1cc(F)c(Cl)cc1Cl)C(=O)N[C@H]1C[C@H]2CC[C@@H](C1)N2c1ccc(S(C)(=O)=O)cn1` [Example 236, 2-[(2,4-dichloro-5-fluorophenyl)oxy]-2-methyl-N-{8-[5-(methylsulfonyl)pyridin-2-yl]-8-azabicyclo[3.2.1]oct-3-endo-yl}propanamide], the IC50 was < 200 nM.

As for `CC(C)(Oc1cc(F)c(Cl)cc1Cl)C(=O)N[C@H]1C[C@H]2CC[C@@H](C1)N2c1ccc(S(C)(=O)=O)cc1` [Example 237, 2-[(2,4-dichloro-5-fluorophenyl)oxy]-2-methyl-N-{8-[4-(methylsulfonyl)phenyl]-8-azabicyclo[3.2.1]oct-3-endo-yl}propanamide], the IC50 was < 200 nM.

With `CC(C)(Oc1c(Cl)cc(F)cc1Cl)C(=O)N[C@H]1C[C@H]2CC[C@@H](C1)N2c1ccc(S(N)(=O)=O)cn1` [Example 238, N-{8-[5-(aminosulfonyl)pyridin-2-yl]-8-azabicyclo[3.2.1]oct-3-endo-yl}-2-[(2,6-dichloro-4-fluorophenyl)oxy]-2-methylpropanamide], the half-maximal inhibitory concentration (IC50) was < 200 nM.

In the case of `CC(C)(Oc1c(Cl)cc(F)cc1Cl)C(=O)N[C@H]1C[C@H]2CC[C@@H](C1)N2c1ccc(S(C)(=O)=O)cc1` [Example 239, 2-[(2,6-dichloro-4-fluorophenyl)oxy]-2-methyl-N-{8-[4-(methylsulfonyl)phenyl]-8-azabicyclo[3.2.1]oct-3-endo-yl}propanamide], the IC50 is < 200 nM.

Turning to `CC(C)(Oc1ccc(Cl)c(F)c1)C(=O)N[C@H]1C[C@H]2CC[C@@H](C1)N2c1ccc(S(C)(=O)=O)cn1` [Example 240, 2-[(4-chloro-3-fluorophenyl)oxy]-2-methyl-N-{8-[5-(methylsulfonyl)pyridin-2-yl]-8-azabicyclo[3.2.1]oct-3-endo-yl}propanamide], the IC50 is < 200 nM.

As to `CC(C)(Oc1ccc(Cl)c(F)c1)C(=O)N[C@H]1C[C@H]2CC[C@@H](C1)N2c1ccc(S(C)(=O)=O)cc1` [Example 241, 2-[(4-chloro-3-fluorophenyl)oxy]-2-methyl-N-{8-[4-(methylsulfonyl)phenyl]-8-azabicyclo[3.2.1]oct-3-endo-yl}propanamide], the IC50 was < 2000 nM.

As to `CC(C)(Oc1ccc(Cl)c(F)c1)C(=O)N[C@H]1C[C@H]2CC[C@@H](C1)N2c1ccc(S(N)(=O)=O)cn1` [Example 242, N-{8-[5-(aminosulfonyl)pyridin-2-yl]-8-azabicyclo[3.2.1]oct-3-endo-yl}-2-[(4-chloro-3-fluorophenyl)oxy]-2-methylpropanamide], the IC50 was < 200 nM.

As for `CC(C)(Oc1ccc(C(F)(F)F)cc1)C(=O)N[C@H]1C[C@H]2CC[C@@H](C1)N2c1ccc(S(C)(=O)=O)cn1` [Example 243, 2-methyl-N-{8-[5-(methylsulfonyl)pyridin-2-yl]-8-azabicyclo[3.2.1]oct-3-endo-yl}-2-{[4-(trifluoromethyl)phenyl]oxy}propanamide], the IC50 is < 2000 nM.

For `CC(C)(Oc1ccc(C(F)(F)F)cc1)C(=O)N[C@H]1C[C@H]2CC[C@@H](C1)N2c1ccc(S(N)(=O)=O)cn1` [Example 244, N-{8-[5-(aminosulfonyl)pyridin-2-yl]-8-azabicyclo[3.2.1]oct-3-endo-yl}-2-methyl-2-{[4-(trifluoromethyl)phenyl]oxy}propanamide], the IC50 is < 2000 nM.

Turning to `CC(C)(Oc1ccc(C(F)(F)F)cc1)C(=O)N[C@H]1C[C@H]2CC[C@@H](C1)N2c1ccc(S(C)(=O)=O)cc1` [Example 245, 2-methyl-N-{8-[4-(methylsulfonyl)phenyl]-8-azabicyclo[3.2.1]oct-3-endo-yl}-2-{[4-(trifluoromethyl)phenyl]oxy}propanamide], the 50% inhibitory concentration (IC50) was < 2000 nM.

For the compound `CC(C)(Oc1ncc(C(F)(F)F)cc1Cl)C(=O)N[C@H]1C[C@H]2CC[C@@H](C1)N2c1ccc(S(N)(=O)=O)cn1` [Example 246, N-{8-[5-(aminosulfonyl)pyridin-2-yl]-8-azabicyclo[3.2.1]oct-3-endo-yl}-2-{[3-chloro-5-(trifluoromethyl)pyridin-2-yl]oxy}-2-methylpropanamide], the IC50 is < 2000 nM.

On to `CC(C)(Oc1ncc(Cl)cc1F)C(=O)N[C@H]1C[C@H]2CC[C@@H](C1)N2c1ccc(S(N)(=O)=O)cn1` [Example 247, N-{8-[5-(aminosulfonyl)pyridin-2-yl]-8-azabicyclo[3.2.1]oct-3-endo-yl}-2-[(5-chloro-3-fluoropyridin-2-yl)oxy]-2-methylpropanamide], for which the IC50 is < 2000 nM.

As to `CC(C)(Oc1ncc(C(F)(F)F)cc1Cl)C(=O)N[C@H]1C[C@H]2CC[C@@H](C1)N2c1ccc(S(C)(=O)=O)cn1` [Example 248, 2-{[3-chloro-5-(trifluoromethyl)pyridin-2-yl]oxy}-2-methyl-N-{8-[5-(methylsulfonyl)pyridin-2-yl]-8-azabicyclo[3.2.1]oct-3-endo-yl}propanamide], the IC50 is < 2000 nM.

`CC(C)(Oc1ncc(C(F)(F)F)cc1Cl)C(=O)N[C@H]1C[C@H]2CC[C@@H](C1)N2c1ccc(S(C)(=O)=O)cc1` [Example 249, 2-{[3-chloro-5-(trifluoromethyl)pyridin-2-yl]oxy}-2-methyl-N-{8-[4-(methylsulfonyl)phenyl]-8-azabicyclo[3.2.1]oct-3-endo-yl}propanamide]: the concentration for half-maximal inhibition (IC50) was < 2000 nM.

Regarding `CC(C)(Oc1ccc(F)cc1C(F)(F)F)C(=O)N[C@H]1C[C@H]2CC[C@@H](C1)N2c1ccc(S(C)(=O)=O)cc1` [Example 250, 2-{[4-fluoro-2-(trifluoromethyl)phenyl]oxy}-2-methyl-N-{8-[4-(methylsulfonyl)phenyl]-8-azabicyclo[3.2.1]oct-3-endo-yl}propanamide], the IC50 was < 200 nM.

On to `CC(C)(Oc1c(Cl)cc(F)cc1C(F)(F)F)C(=O)N[C@H]1C[C@H]2CC[C@@H](C1)N2c1ccc(S(N)(=O)=O)cn1` [Example 251, N-{8-[5-(aminosulfonyl)pyridin-2-yl]-8-azabicyclo[3.2.1]oct-3-endo-yl}-2-{[2-chloro-4-fluoro-6-(trifluoromethyl)phenyl]oxy}-2-methylpropanamide], for which the half-maximal inhibitory concentration (IC50) is < 200 nM.

Turning to `CC(C)(Oc1c(Cl)cc(F)cc1C(F)(F)F)C(=O)N[C@H]1C[C@H]2CC[C@@H](C1)N2c1ccc(S(C)(=O)=O)cc1` [Example 252, 2-{[2-chloro-4-fluoro-6-(trifiuoromethyl)phenyl]oxy}-2-methyl-N-{8-[4-(methylsulfonyl)phenyl]-8-azabicyclo[3.2.1]oct-3-endo-yl}propanamide], the IC50 was < 200 nM.

Turning to `COc1ccc(OC(C)(C)C(=O)NC2CC3CCC(C2)N3c2ccc(S(C)(=O)=O)cn2)c(Cl)c1` (stereo not drawn) [Example 253, 2-{[2-chloro-4-(methyloxy)phenyl]oxy}-2-methyl-N-{8-[5-(methylsulfonyl)pyridin-2-yl]-8-azabicyclo[3.2.1]oct-3-endo-yl}propanamide], the 50% inhibitory concentration (IC50) is < 200 nM.

For `COc1ccc(OC(C)(C)C(=O)N[C@H]2C[C@H]3CC[C@@H](C2)N3c2ccc(S(C)(=O)=O)cc2)c(Cl)c1` [Example 254, 2-{[2-chloro-4-(methyloxy)phenyl]oxy}-2-methyl-N-{8-[4-(methylsulfonyl)phenyl]-8-azabicyclo[3.2.1]oct-3-endo-yl}propanamide], the half-inhibitory concentration (IC50) is < 200 nM.

Take `CC(C)(Oc1ccccc1C(F)(F)F)C(=O)N[C@H]1C[C@H]2CC[C@@H](C1)N2c1ccc(S(C)(=O)=O)cn1` [Example 255, 2-methyl-N-{8-[5-(methylsulfonyl)pyridin-2-yl]-8-azabicyclo[3.2.1]oct-3-endo-yl}-2-{[2-(trifluoromethyl)phenyl]oxy}propanamide]: the IC50 is < 200 nM.

Regarding `CC(C)(Oc1ccccc1C(F)(F)F)C(=O)N[C@H]1C[C@H]2CC[C@@H](C1)N2c1ccc(S(N)(=O)=O)cn1` [Example 256, N-{8-[5-(aminosulfonyl)pyridin-2-yl]-8-azabicyclo[3.2.1]oct-3-endo-yl}-2-methyl-2-{[2-(trifluoromethyl)phenyl]oxy}propanamide], the concentration for half-maximal inhibition (IC50) is < 200 nM.

Regarding `CC(C)(Oc1ccccc1C(F)(F)F)C(=O)N[C@H]1C[C@H]2CC[C@@H](C1)N2c1ccc(S(C)(=O)=O)cc1` [Example 257, 2-methyl-N-{8-[4-(methylsulfonyl)phenyl]-8-azabicyclo[3.2.1]oct-3-endo-yl}-2-{[2-(trifluoromethyl)phenyl]oxy}propanamide], the concentration for half-maximal inhibition (IC50) was < 200 nM.

Take `CC(C)(Oc1c(F)cc(F)cc1F)C(=O)N[C@H]1C[C@H]2CC[C@@H](C1)N2c1ccc(S(C)(=O)=O)cn1` [Example 258, 2-methyl-N-{8-[5-(methylsulfonyl)pyridin-2-yl]-8-azabicyclo[3.2.1]oct-3-endo-yl}-2-[(2,4,6-trifluorophenyl)oxy]propanamide]: the IC50 was < 200 nM.

As for `CC(C)(Oc1c(F)cc(F)cc1F)C(=O)N[C@H]1C[C@H]2CC[C@@H](C1)N2c1ccc(S(N)(=O)=O)cn1` [Example 259, N-{8-[5-(aminosulfonyl)pyridin-2-yl]-8-azabicyclo[3.2.1]oct-3-endo-yl}-2-methyl-2-[(2,4,6-trifluorophenyl)oxy]propanamide], the IC50 was < 200 nM.

Turning to `CC(C)(Oc1c(F)cc(F)cc1F)C(=O)N[C@H]1C[C@H]2CC[C@@H](C1)N2c1ccc(S(C)(=O)=O)cc1` [Example 260, 2-methyl-N-{8-[4-(methylsulfonyl)phenyl]-8-azabicyclo[3.2.1]oct-3-endo-yl}-2-[(2,4,6-trifluorophenyl)oxy]propanamide], the 50% inhibitory concentration (IC50) is < 200 nM.

For orientation: IC50 means the concentration that gives 50% inhibition.

The values above are taken from US8163771B2, “11 β-HSD1 modulators” (Exelixis, Inc., priority 2008, dated 2012).
